Experimental data: US10307357B2, “Prebiotic oral care compositions containing an alkyl glycoside” (COLGATE-PALMOLIVE COMPANY, priority 2013, dated 2019)

Tests used:
Format in all cases: cell-based
Actinomyces viscosus = assay: Twenty-four hour biofilm growth (crystal violet); conditions: 24 hours, control = 1
Protocol: (§1) The increase in biofilm formation of the tested bacteria in response to selected glycosides (β-methyl-D-galactoside and α-methyl-D-galactoside) was investigated by setting up biofilm growth assays in a nutritionally rich medium (brain heart infusion broth (BHI), Oxoid), over 24 hours. Late exponential growth phase liquid cultures were prepared by transferring the respective bacterium from blood agar plates to BHI and overnight incubation at 37° C. in an anaerobic atmosphere for A. viscosus, V. parvula, P. gingivalis, P. intermedia, T. forsythia, A. naeslundii, and C. sputigena, and in a 5% CO2 environment for S. salivarius, S. sanguinis, S. mitis, A. actinomycetemcomitans, S. mutans, and S. gordonii. Overnight cultures were transferred to BHI and adjusted to a concentration of 1×10^7 CFU/ml by measuring the optical density at 600 nm (OD600) (BioRad SmartSpec 3000). For each strain, 200 μl of the bacterial suspension was added to a 96-well plate containing 20 μl of the respective glycosides. Final concentrations of the glycosides were set to 5, 10, 20 and 25 μmol/ml. […] Additionally, for each bacterium tested, a background control, to correct for background staining, was added. This background control contained the bacterium tested and 0.03 weight % chlorhexidine, as an antiseptic. Plates were incubated as previously described. After 24 hrs the supernatant was removed from the wells of the plates. The wells were washed twice with 1×100 μL PBS (phosphate buffered saline), fixed for 20 minutes with 96% vol. ethanol (96% vol. solution in water) and the biofilm retained at the bottom of the wells was stained with 1 weight % crystal violet (1 weight % solution in water). The bound dye was dissolved with 5% vol. acetic acid (5% vol. solution in water). Quantification of the stained biofilm was performed by measuring the absorbance at 630 nm using a Multiskan Ascent microplate reader (Thermo Scientific). […] The experiment was carried out on three different days (thus providing 3 biological replicas) and each day the experiment was carried out in quadruple (thus providing 4 technical replicas) for each combination of bacterium with glycoside and for each control. For each day and for each combination, the average (mean) of the values obtained (as detailed above) for the four technical replicas was calculated to provide a single value for each combination on each day. The values shown in Tables 7 to 8, below, are the average (mean) of the three single values obtained for each combination of bacterium with glycoside.

[1] = system: Aggregatibacter actinomycetemcomitans; assay: Twenty-four hour biofilm growth (crystal violet); conditions: 24 hours, control = 1
Protocol: as §1

Prevotella intermedia = assay: Twenty-four hour biofilm growth (crystal violet); conditions: 24 hours, control = 1
Protocol: as §1

Streptococcus mutans = assay: Twenty-four hour biofilm growth (crystal violet); conditions: 24 hours, control = 1
Protocol: as §1

Streptococcus sanguinis = assay: Twenty-four hour biofilm growth (crystal violet); conditions: 24 hours, control = 1
Protocol: as §1

Veillonella parvula = assay: Twenty-four hour biofilm growth (crystal violet); conditions: 24 hours, control = 1
Protocol: as §1

[2] = system: beneficial oral bacteria and pathogenic oral bacteria; assay: Microarray screen, conclusion over the panel; conditions: at 24 hrs and at 48 hrs; threshold 2
Protocol: Substrates that were able to increase the metabolic activity of at least one of the above beneficial bacteria while not or only minimally increasing the growth of the pathogenic bacteria are considered to be prebiotic substrates. The extent of metabolic activity of the tested bacteria in the presence of the above-mentioned glycosides after 24 hours and 48 hours was investigated through a high throughput phenotype microarray system (PM) for microbial cells (Biolog Inc.). Each PM can contain up to 95 different biochemical compounds (e.g. glycosides) that may act as substrates for bacteria as well as one negative control, not containing the substrates. Microarray plates were used in which the different wells of each plate were pre-loaded (by the manufacturer, Biolog Inc.) with different glycosides to be tested. […] Color changes were measured spectrophotometrically at 492 nm (Thermo Scientific Multiskan Ascent) at 24 hrs and 48 hrs using the same plate at both time points. […] After 24 hrs and 48 hrs under continuous shaking in a Multiscan microplate reader, the optical density (OD) of the synthetic medium at 24 hours and 48 hours was measured (using the microplate reader) at a wavelength of 492 nm for each combination of bacterium/glycoside, and for each of their respective controls (i.e. which contained the particular bacterium but no glycosides). […]

| SMILES | biofilm OD 630 nm divided by control (biofilm growth) (Actinomyces viscosus; 5 μmol/ml) | biofilm OD 630 nm divided by control (biofilm growth) (Actinomyces viscosus; 10 μmol/ml) | biofilm OD 630 nm divided by control (biofilm growth) (Actinomyces viscosus; 20 μmol/ml) | biofilm OD 630 nm divided by control (biofilm growth) (Actinomyces viscosus; 25 μmol/ml) | biofilm OD 630 nm divided by control (biofilm growth) ([1]; 5 μmol/ml) | biofilm OD 630 nm divided by control (biofilm growth) ([1]; 10 μmol/ml) | biofilm OD 630 nm divided by control (biofilm growth) ([1]; 20 μmol/ml) | biofilm OD 630 nm divided by control (biofilm growth) ([1]; 25 μmol/ml) | biofilm OD 630 nm divided by control (biofilm growth) (Prevotella intermedia; 5 μmol/ml) | biofilm OD 630 nm divided by control (biofilm growth) (Prevotella intermedia; 10 μmol/ml) | biofilm OD 630 nm divided by control (biofilm growth) (Prevotella intermedia; 20 μmol/ml) | biofilm OD 630 nm divided by control (biofilm growth) (Prevotella intermedia; 25 μmol/ml) | biofilm OD 630 nm divided by control (biofilm growth) (Streptococcus mutans; 5 μmol/ml) | biofilm OD 630 nm divided by control (biofilm growth) (Streptococcus mutans; 10 μmol/ml) | biofilm OD 630 nm divided by control (biofilm growth) (Streptococcus mutans; 20 μmol/ml) | biofilm OD 630 nm divided by control (biofilm growth) (Streptococcus mutans; 25 μmol/ml) | biofilm OD 630 nm divided by control (biofilm growth) (Streptococcus sanguinis; 5 μmol/ml) | biofilm OD 630 nm divided by control (biofilm growth) (Streptococcus sanguinis; 10 μmol/ml) | biofilm OD 630 nm divided by control (biofilm growth) (Streptococcus sanguinis; 20 μmol/ml) | biofilm OD 630 nm divided by control (biofilm growth) (Streptococcus sanguinis; 25 μmol/ml) | further results |
| --- | --- | --- | --- | --- | --- | --- | --- | --- | --- | --- | --- | --- | --- | --- | --- | --- | --- | --- | --- | --- | --- |
| CO[C@H]1O[C@H](CO)[C@H](O)[C@H](O)[C@H]1O [α-methyl-D-galactoside] | 0.7268 | 0.7293 | 0.7490 | 0.6777 | 0.9911 | 0.9943 | 1.1846 | 1.1720 | 1.1518 | 1.1589 | 1.0758 | 0.9774 | 1.2046 | 1.3284 | 1.5452 | 1.7240 | 2.6029 | 2.4812 | 2.1593 | 2.4656 | biofilm OD 630 nm divided by control (biofilm growth) (Veillonella parvula; 5 μmol/ml): 1.0323; biofilm OD 630 nm divided by control (biofilm growth) (Veillonella parvula; 10 μmol/ml): 1.0615; biofilm OD 630 nm divided by control (biofilm growth) (Veillonella parvula; 20 μmol/ml): 1.0577; biofilm OD 630 nm divided by control (biofilm growth) (Veillonella parvula; 25 μmol/ml): 1.1040; prebiotic effect (metabolic activity), in words [2]: exhibited prebiotic effects |
| CO[C@@H]1O[C@H](CO)[C@H](O)[C@H](O)[C@H]1O [β-methyl-D-galactoside] | 0.5917 | 0.5767 | 0.6104 | 0.6322 | 1.1108 | 1.0188 | 1.0927 | 1.0212 | 1.1201 | 1.0925 | 1.1229 | 1.1007 | 1.3512 | 1.0007 | 1.1097 | 1.2791 | 1.8586 | 2.3853 | 2.3700 | 2.4211 | biofilm OD 630 nm divided by control (biofilm growth) (Veillonella parvula; 5 μmol/ml): 1.0106; biofilm OD 630 nm divided by control (biofilm growth) (Veillonella parvula; 10 μmol/ml): 1.0266; biofilm OD 630 nm divided by control (biofilm growth) (Veillonella parvula; 20 μmol/ml): 1.0191; biofilm OD 630 nm divided by control (biofilm growth) (Veillonella parvula; 25 μmol/ml): 1.0384; prebiotic effect (metabolic activity), in words [2]: exhibited prebiotic effects |
